The target in the experiment is T1, GPVI (platelet glycoprotein VI) (Homo sapiens, UniProt Q9HCN6).
T1 construct: gene GP6; native receptor on washed human platelets
T1 sequence (Q9HCN6 21-339): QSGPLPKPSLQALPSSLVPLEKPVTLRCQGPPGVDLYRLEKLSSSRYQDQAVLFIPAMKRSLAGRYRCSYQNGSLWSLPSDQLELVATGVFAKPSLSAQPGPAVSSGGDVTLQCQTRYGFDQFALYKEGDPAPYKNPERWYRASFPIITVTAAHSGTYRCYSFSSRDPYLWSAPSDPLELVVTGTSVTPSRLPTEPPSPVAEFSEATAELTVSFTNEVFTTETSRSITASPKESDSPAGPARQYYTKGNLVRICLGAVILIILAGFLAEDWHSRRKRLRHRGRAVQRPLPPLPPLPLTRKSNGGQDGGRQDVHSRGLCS
The experiment can be described thus: Inhibition of CRP-XL/collagen-induced Ca2+ release and aggregation in washed human platelets; rightward shift of CRP-XL curve. The class given is cell-based. The following applies: read-out: Ca^2+ RELEASE / CRP.

The structures appear in SMILES notation.

As to `CN(C)CCCSc1ccccc1NC(=O)/C=C/c1ccccc1` [cinanserin], the IC50 is 40 µM.

Values taken from PMC4074120, “Discovery of Novel GPVI Receptor Antagonists by Structure-Based Repurposing” (PLoS ONE, 2014).
